The values that follow come from publication PMC12210912, “Pharmacologic properties and inhibitory activity of 6-azasteroids against Mycobacterium leprae in vivo and in vitro” (Microbiology Spectrum, 2025).

The nature of data set [1]: in vivo pharmacokinetics in CD1 male mice. The note with it: for bioavailability: male, CD1, mouse, oral, 5 mg/kg, read-out: F (bioavailability); for Cmax / Tmax / half-life: mouse. The procedure:
Experiments were performed by Pharmaron, Inc. The metabolism and pharmacokinetics of the 6-azasteroids were studied in CD1 male mice approximately 8 weeks old and 20–30 g. […] Each group contained three mice. Blood samples were collected in anticoagulant tubes containing potassium ethylenediaminetetraacetic acid.
Four quality control samples (1, 2, 50, and 800 ng/mL) for plasma were prepared independently of those used for the calibration curves. These quality control samples were prepared on the day of analysis in the same way as the calibration standards. An aliquot (33 µL) of each standard, quality control sample, and unknown sample (30 µL of plasma combined with 3 µL of blank solution) was added to 200 µL of acetonitrile containing an internal standard mixture for precipitating protein. […] The supernatant was diluted three times with water. Diluted supernatant (5 µL) was quantitatively analyzed by LC-MS/MS (API 4000 Triple Quad—AB Sciex, Canada; LC-30A HPLC—Shimadzu, Japan). Non-compartmental pharmacokinetic analysis was performed with Phoenix WinNonlin software (ver. 6.1, Certara, US) using composite data.

Data set [2] relates to M. leprae. Put plainly: M. leprae viability in axenic medium by radiorespirometry. It counts as cell-based, Mycobacterium leprae.
Data set [3] concerns M. leprae. Put plainly: Shepard's mouse footpad model: bacilli count and molecular viability. It counts as in vivo, Mycobacterium leprae. The following applies: for M. leprae molecular viability, median (16S rRNA cDNA/DNA, RT-qPCR) / M. leprae molecular viability: Balb/c mice footpad; for M. leprae molecular viability, median (16S rRNA cDNA/DNA, RT-qPCR): 50 mg/kg daily alone, 1 month; for M. leprae molecular viability: 50 mg/kg daily in combination with sub-inhibitory rifampicin 1 mg/kg; for bacillary load in footpad, median: Balb/c mice, 50 mg/kg daily by gavage alone, 1 month (20 doses), vehicle median 8.110 × 10^4. The procedure: Animal experimentation was conducted under approval by the ILSL ethical committee ([…] 02/19). Balb/c female mice with 8-week-old were inoculated with 5 × 10^3 live M. leprae bacilli, strain Thai-53, in both hind footpads, as previously described for the Shepard's model ([25]). Eight groups were tested in the experiment: (i) M. leprae control group (n = 5) inoculated with M. leprae and no additional treatment; (ii) vehicle control group (n = 4) inoculated with M. leprae and treatment with vehicle of the drugs; (iii) regular rifampicin treatment, 10 mg/Kg dose; […] (v) compound 2 treatment (n = 4), 50 mg/kg dose; […] One month after inoculation, mice from the control group were euthanized and the hind footpad was collected to assess the establishment of the infection by bacillary enumeration. At that time point, vehicle or drug treatment was started for the remaining groups. All compounds were administrated by gavage, rifampicin was administered weekly, and the compounds were administered daily (excluding weekends) for 1 month (20 doses). Mice were euthanized 6 h after administration of the last dose, and blood was collected in heparin-coated tubes by cardiac puncture for blood enzyme evaluation and compound 5 measurement by LC/MS in the plasma. The infected hind footpads from each group of mice were excised, homogenized and bacilli enumerated in a 100 μL aliquot as previously described ([26]). The remaining homogenate was centrifuged at 12,000 × g for 15 min, the supernatant was discarded, and the pellet was suspended in 750 μL of RNA later solution (Thermo Fisher Scientific). The homogenized tissue pellet was incubated at 4°C for 16 h and stored at -80°C until determination of M. leprae viability was performed by RT-qPCR ([27], [28]). […] RNA and DNA extractions were performed as previously described ([10], [27]). RNA samples were treated with the Turbo DNA-free kit (Thermo Fisher Scientific), and 1,000 ng of DNAse-treated RNA was then used to synthesize the cDNA using the GoScript kit (Promega, USA).

In data set [4] the test system is M. leprae 3β-HSD. Put plainly: NAD+ reduction by M. leprae whole cell lysate. Type of data set: biochemical, Mycobacterium leprae. The note with it: M. leprae WCL with 200 µM cholesterol, vehicle DMSO mean 1.119. On the procedure:
M. leprae whole cell lysate (WCL) was obtained by bead-beating gamma-irradiated M. leprae Strain NHDP (BEI Resources, NR-19326) with 0.1 mm silica beads and FastPrep bead-beater (MP Biomedicals, USA). Homogenization was carried out in three cycles of agitation at 6.5 m/s for 45 s, with the sample being rested on ice for at least 2 min between cycles. The homogenates were centrifuged at 14,000 × g for 5 min to separate the spheres and WCL. The supernatant was recovered, and protein concentration determined using Pierce BCA protein assay (Thermo Fisher Scientific). NAD^+ (200 µM, MilliporeSigma, USA) reduction was measured as previously described using 50 µg (protein) of WCL protein, with the addition of 200 µM of cholesterol (MilliporeSigma) and in the presence or absence of compound 2 (40 and 100 µM) or compound 5 (100 µM) ([10]).

For data set [5], the system named is M. leprae 3β-HSD. Briefly: cholestenone production by M. leprae in axenic medium (TLC). It counts as cell-based. The following applies: Mycobacterium leprae, TLC densitometry, σ printed in brackets.
The target in another data set is T1, CYP3A4 (Homo sapiens, UniProt P08684).
T1 construct: Human liver microsomes (150 donors pooled, male & female, Corning, Cat# 452117) were used as a source of CYP3A4; tissue Corning 452117; host or cells: pooled human liver microsomes (150 donors)
T1 sequence (P08684 whole entry): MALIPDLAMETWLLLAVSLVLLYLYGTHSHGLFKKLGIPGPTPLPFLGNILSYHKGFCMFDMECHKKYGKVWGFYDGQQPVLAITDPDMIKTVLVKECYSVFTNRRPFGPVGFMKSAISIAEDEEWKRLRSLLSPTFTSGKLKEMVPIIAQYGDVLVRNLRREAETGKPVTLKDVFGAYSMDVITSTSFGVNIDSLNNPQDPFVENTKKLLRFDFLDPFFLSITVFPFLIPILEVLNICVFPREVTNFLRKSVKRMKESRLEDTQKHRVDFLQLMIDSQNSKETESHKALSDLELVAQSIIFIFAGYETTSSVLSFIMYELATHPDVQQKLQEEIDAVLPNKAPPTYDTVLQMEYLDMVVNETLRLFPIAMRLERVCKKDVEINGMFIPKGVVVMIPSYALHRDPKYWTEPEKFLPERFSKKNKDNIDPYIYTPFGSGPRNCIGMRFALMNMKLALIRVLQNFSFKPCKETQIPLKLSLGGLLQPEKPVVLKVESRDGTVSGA
Put plainly: inhibition of CYP3A4 enzymatic activity in human liver microsomes. Type of data set: in vitro ADME. The procedure:
Inhibition of CYP3A4 enzymatic activity was carried out following a standard protocol by Pharmaron, Inc. Human liver microsomes (150 donors pooled, male & female, Corning, Cat# 452117) were used as a source of CYP3A4. The final concentration of human liver microsomes was 0.2 mg/mL. CYP3A4 was tested with testosterone (stock: 10 mM, final: 50 µM) or midazolam (stock: 1 mM, final: 5 µM) as substrate. Aliquots (1 µL) of test compounds (20 µM final concentration), positive control compound ketoconazole (20 µM final concentration), or buffer blank were transferred to a multi-well plate. The reaction was initiated with the addition of 20 µL of 10 mM NADPH solution to provide a final concentration of 1 mM in a 200 µL total volume and carried out at 37°C. The reaction was stopped by the addition of 1.5 volumes of methanol with incubation solution (100 nM alprazolam, 200 nM imipramine, 200 nM labetalol, and 2 µM ketoprofen) at designated time points (5 min midazolam-mediated CYP3A4; 10 min testosterone-mediated CYP3A4). The plate was centrifuged at 3,220 × g for 40 min to precipitate protein. Aliquots of 100 µL of the supernatant were diluted with 100 µL ultra-pure H2O, and the mixture was used for LC-MS/MS analysis to determine concentration of product (hydroxymidazolam or hydroxytestosterone) formed. The % inhibition was calculated by comparison with no inhibitor control. All experiments were performed in duplicate.

The test system of data set [6] is human type 1 5α-reductase. On the set-up: method as in PMID 8057283. The following applies: cited from earlier work.
Where [7] appears, read: plasma, 5 mg/kg PO vs 1 mg/kg IV.

For `CC(C)(C)c1ccc(C(C)(C)C)c(NC(=O)C2CCC3C4CNC5=CC(=O)CC[C@]5(C)C4CC[C@]23C)c1` (some centres unmarked) [Compound 1], in data set [1] (1 mg/kg IV), the AUCinf is 356 ng·h/g and the “Clobs (observed clearance)” value was 46.8 (mL/min)/kg. In data set [1] (5 mg/kg PO, plasma), the AUCinf was 822.1 ng·h/g, the Cmax was 0.501 µg/mL, the Tmax is 30 min and the half-life was 60 min. For the same molecule, in data set [1] (PO administration), the “time by which most of the compound was cleared from plasma” value was no more than 4 h. For the same molecule, the bioavailability in data set [1] (setting [7]) came to 46.2%. In data set [1] (plasma, 1 mg/kg IV), the maximum concentration (Cmax) came to 0.803 µg/mL and the Tmax amounted to 38.5 min.

For `CCCN1CC2C3CCC(C(=O)Nc4cc(C(C)(C)C)ccc4C(C)(C)C)[C@@]3(C)CCC2[C@@]2(C)CCC(=O)C=C12` (some centres unmarked) [Compound 2], the “effect on M. leprae viability (radiorespirometry)” value with M. leprae [2] (40 µM) is given as “did not significantly affect M. leprae viability”; with M. leprae [2] (100 µM), “drastically reduced M. leprae viability”. Also, in the data set with M. leprae [3], the “M. leprae molecular viability, median (16S rRNA cDNA/DNA, RT-qPCR)” value is on record as 0.5442%. In addition, in the data set with M. leprae [3], the “M. leprae molecular viability” value is on record as “a reduction in bacterial viability was also observed”. Further, in the data set on M. leprae [3], the “bacillary load in footpad, median” value was 7.885 × 10^4. The “rate of NAD+ reduction, mean value (ratio absorbance T/absorbance T0)” value in the data set with M. leprae 3β-HSD [4] (40 µM) is 0.9986; in the data set with M. leprae 3β-HSD [4] (100 µM) it was 1.038. The molecule also registered an inhibition at 40 µM in the data set with M. leprae 3β-HSD [5] (40 μM) of roughly 38%.

Take `C[C@]12CCC3C(CNC4=CC(=O)CC[C@@]43C)C1CCC2C(=O)NC(c1ccc(F)cc1)c1ccc(F)cc1` (some centres unmarked) [Compound 5]: the “effect on M. leprae viability (radiorespirometry)” value with M. leprae [2] (100 µM) is given as “without significantly affecting bacterial viability”. In the data set with M. leprae [3], the “M. leprae molecular viability, median (16S rRNA cDNA/DNA, RT-qPCR)” value was 4.205%; the “M. leprae molecular viability” value was “a reduction in bacterial viability was also observed”; the “bacillary load in footpad, median” value is recorded as 7.890 × 10^4. In addition, in data set [1] (1 mg/kg IV), the AUCinf is recorded as 3,123 h·ng/g and the “Clobs (observed clearance)” value is 5.34 (mL/min)/kg. In addition, in data set [1] (5 mg/kg PO vs 1 mg/kg IV), the “F (bioavailability)” value is on record as 118.9%. In data set [1] (5 mg/kg PO, plasma), the AUCinf was 18,566 h·ng/g, the peak level (Cmax) was 2.21 µg/mL, the Tmax was found to be 30 min and the half-life was 168 min. Besides, the “compound remaining in plasma after 6 h” value in data set [1] (PO administration) was “more than 50%”. In addition, the “in vivo t1/2 relative to compound 1” value in data set [1] (longer than compound 1) was “approximately 2.5 fold”. In addition, the bioavailability in data set [1] (setting [7]) turned out to be 119%. Also, in data set [1] (plasma, 1 mg/kg IV), the Cmax was 0.838 µg/mL and the Tmax worked out at 156 min. For the same molecule, the “% inhibition observed, Cyp3A4 Midazolam Isoform” value at CYP3A4 (20 µM, midazolam substrate) is recorded as “strongly inhibits”. In addition, the “% inhibition observed, Cyp3A4 Testosterone Isoform” value on CYP3A4 (20 µM, testosterone substrate) is “strongly inhibits”. Also, on CYP3A4 (both sexes, probe midazolam (5 µM), midazolam substrate, read-out: % inhibition observed, Cyp3A4 Midazolam Isoform), the inhibition at 5 min, 20 µM worked out at 79%. In addition, on CYP3A4 (both sexes, probe testosterone (50 µM), testosterone substrate, read-out: % inhibition observed, Cyp3A4 Testosterone Isoform), the inhibition at 10 min, 20 µM is 68%. Also, the “inhibition of human type 1 5α-reductase” value in data set [6] is on record as “nanomolar inhibitor”. For the same molecule, the “rate of NAD+ reduction, mean value (ratio absorbance T/absorbance T0)” value in the data set on M. leprae 3β-HSD [4] (100 µM) came out at 0.9070. Moreover, the inhibition at 100 µM with M. leprae 3β-HSD [5] (100 μM) was roughly 25.1%.
